Assay results reported in patent US11639940B2, “Method for determining sensitivity of cyclin-dependent kinase 4/6 inhibitor” (SYSMEX CORPORATION, priority 2019, dated 2023).
Read-outs that look alike come from different tables or passages of the source.

Legend:
[1] = system: MCF7; assay: cytotoxicity test using WST-8 (number of viable cells); assay type: cell-based; details: Homo sapiens, MCF7, 48 hours
Description: (§1) Six types of breast cancer cell lines, T47D, MCF7, HCC1500, CAMA-1, DU4475 and MDA-MB-231, were used. T47D, MCF7, HCC1500 and CAMA-1 are HER2-negative/ER-positive breast cancer cell lines, and DU4475 and MDA-MB-231 are cell lines derived from triple negative breast cancer (TNBC). […] In the analysis, the survival rate of the untreated cell line was set to 100%.

[2] = system: HCC1500; assay: as above; assay type: cell-based; details: HCC1500, 48 hours
Description: as §1

[3] = system: T47D; assay: as above; assay type: cell-based; details: Homo sapiens, 48 hours
Description: as §1

[4] = system: MDA-MB-231; assay: as above; assay type: cell-based; details: Homo sapiens, MDA-MB-231, 48 hours
Description: as §1

[5] = system: DU4475; assay: as above; assay type: cell-based; details: Homo sapiens, DU-4475, 48 h, DU4475, 48 hours
Description: as §1

[6] = system: CDK6; assay: expression level by Western blot in lysate of treated breast cancer cell lines; assay type: cell-based; details: 48 h
Method: (§2) After 48 hours, cells were recovered.
(§3) To quantitatively analyze the expression levels, recombinant CDK proteins (rCDK2, rCDK4 and rCDK6) were electrophoresed at 5.0 ng, 2.5 ng, 1.0 ng, 0.75 ng, 0.5 ng and 0.2 ng as standard proteins.

[7] = system: CDK2; assay: as above; assay type: cell-based; details: 48 h
Method: as §2, §3

[8] = system: breast cancer cell lines; assay: cytotoxicity test using WST-8, summary over the cell lines; assay type: cell-based
Description: as §1

[9] = system: CDK4; details: 48 h
Method: After 48 hours, cells were recovered. A cell solubilization buffer was added to a cell pellet to be 5×10^7 cells/mL to lyse the cells, and the supernatant was recovered by centrifugation to obtain a cell lysate (hereinafter also referred to as a “lysate sample”).
The expression levels of CDK2, CDK4 and CDK6 were measured by Western blot as follows. Samples for electrophoresis (1 mg/mL lysate sample, 2×sample buffer and 10% 2-mercaptoethanol) were prepared from each lysate sample obtained in the above (2). Each of samples for electrophoresis (10 μL/lane) was electrophoresed on a polyacrylamide gel. To quantitatively analyze the expression levels, recombinant CDK proteins (rCDK2, rCDK4 and rCDK6) were electrophoresed at 5.0 ng, 2.5 ng, 1.0 ng, 0.75 ng, 0.5 ng and 0.2 ng as standard proteins. The gel after electrophoresis was transferred to a membrane by a conventional method, and a primary reaction was performed using an anti-CDK2 antibody, an anti-CDK4 antibody, and an anti-CDK6 antibody. Then, a secondary reaction was performed using an HRP-labeled antibody, and further reacted with SuperSignal West Femto Substrate (Thermo Fisher), and a chemiluminescent signal was detected with an X-ray film. The blot was quantitatively analyzed by Image Lab 5.2.1 (Bio Rad) to calculate the expression levels (nmol/L) of CDK2, CDK4 and CDK6 in each lysate sample.

[10] = system: CAMA-1; assay: cytotoxicity test using WST-8 (number of viable cells); assay type: cell-based; details: Homo sapiens, CAMA-1, 48 hours
Method: as §1, with “100%. The IC50 value was calculated from the normalized data by performing curve fitting using KaleidaGraph 4.0.” for “100%.”

[11] = system: CDK2; assay: CDK activity (phosphorylated substrate peptide, HISCL ELISA) in lysate of treated breast cancer cell lines; assay type: cell-based; set-up: CDK2 Activity: unit not given here; details: 48 h; for CDK2 Specific activity: activity/expression level
Method: After 48 hours, cells were recovered. […] Specifically, it was performed as follows. […] The composition of the substrate solution was as follows. […] The measurement was performed by Automated Immunoassay System […] Corporation). This measurement is based on ELISA on magnetic particles.

CC(=O)c1c(C)c2cnc(Nc3ccc(N4CCNCC4)cn3)nc2n(C2CCCC2)c1=O [palbociclib]
IC50 [1]: 0.767 µM | IC50 [2]: 5.36 µM | IC50 [3]: 0.202 µM | IC50 [4]: 0.475 µM | IC50 [5]: > 10 µM | Expression level CDK6 ([6]; CAMA-1, palbociclib 426 nM): 0.4 nmol/L | Expression level CDK6 ([6]; DU4475, palbociclib 426 nM): 60.9 nmol/L | Expression level CDK6 ([6]; HCC1500, palbociclib 426 nM): 0.4 nmol/L | Expression level CDK6 ([6]; MCF7, palbociclib 426 nM): 4.3 nmol/L | Expression level CDK6 ([6]; MDA-MB-231, palbociclib 426 nM): 20.1 nmol/L | Expression level CDK2 ([7]; CAMA-1, palbociclib 426 nM): 2.8 nmol/L | Expression level CDK2 ([7]; DU4475, palbociclib 426 nM): 12.3 nmol/L | Expression level CDK2 ([7]; HCC1500, palbociclib 426 nM): 2.9 nmol/L | Expression level CDK2 ([7]; MCF7, palbociclib 426 nM): 3.0 nmol/L | Expression level CDK2 ([7]; MDA-MB-231, palbociclib 426 nM): 3.0 nmol/L | Expression level CDK2 ([7]; T47D, palbociclib 426 nM): 5.7 nmol/L | IC50 ([8]; average over the breast cancer cell lines, read-out: IC50 Average): 1.54 µM | IC50 ([8]; median over the breast cancer cell lines, read-out: IC50 Median): 0.767 µM | Expression level CDK4 ([9]; CAMA-1, palbociclib 426 nM): 18.9 nmol/L | Expression level CDK4 ([9]; DU4475, palbociclib 426 nM): 16.6 nmol/L | Expression level CDK4 ([9]; HCC1500, palbociclib 426 nM): 12.7 nmol/L | Expression level CDK4 ([9]; MCF7, palbociclib 426 nM): 39.4 nmol/L | Expression level CDK4 ([9]; MDA-MB-231, palbociclib 426 nM): 20.7 nmol/L | Expression level CDK4 ([9]; T47D, palbociclib 426 nM): 18.8 nmol/L | IC50 [10]: 0.888 µM | CDK2 Activity ([11]; CAMA-1, palbociclib 426 nM): 0.7 | CDK2 Specific activity ([11]; CAMA-1, palbociclib 426 nM): 0.25 | CDK2 Activity ([11]; DU4475, palbociclib 426 nM): 14.5 | CDK2 Specific activity ([11]; DU4475, palbociclib 426 nM): 1.17 | CDK2 Activity ([11]; HCC1500, palbociclib 426 nM): 0.7 | CDK2 Specific activity ([11]; HCC1500, palbociclib 426 nM): 0.25 | CDK2 Activity ([11]; MCF7, palbociclib 426 nM): 1.6 | CDK2 Specific activity ([11]; MCF7, palbociclib 426 nM): 0.53 | CDK2 Activity ([11]; MDA-MB-231, palbociclib 426 nM): 0.7 | CDK2 Specific activity ([11]; MDA-MB-231, palbociclib 426 nM): 0.24 | CDK2 Activity ([11]; T47D, palbociclib 426 nM): 2.1 | CDK2 Specific activity ([11]; T47D, palbociclib 426 nM): 0.36
